Measured values taken from US11931424B2, “Combination MCL-1 inhibitors with anti-body drug conjugates” (Gilead Sciences, Inc., priority 2021, dated 2024).

Tested on: panel of breast cancer cell lines
Assay: Compound A with targeted agents and chemotherapies, 72-hour in vitro proliferation assays
Assay type: cell-based
Conditions: compound A × partner, 72-hour proliferation

Structure (SMILES): CCOc1cc2ncc(C#N)c(Nc3ccc(OCc4ccccn4)c(Cl)c3)c2cc1NC(=O)/C=C/CN(C)C [Neratinib]
- Best CI (AU565 cell line): 0.40
- Bliss Volume (AU565 cell line): 18.09
- HSA volume (AU565 cell line): 11.74
- Loewe Volume (AU565 cell line): 10.72
- Synergy Score (AU565 cell line): 19.43
- Best CI (BT-20 cell line): 0.05
- Bliss Volume (BT-20 cell line): 38.29
- HSA volume (BT-20 cell line): 28.06
- Loewe Volume (BT-20 cell line): 28.33
- Synergy Score (BT-20 cell line): 58.64
- Best CI (CAL-51 cell line): 0.29
- Bliss Volume (CAL-51 cell line): 6.99
- HSA volume (CAL-51 cell line): 4.62
- Loewe Volume (CAL-51 cell line): 6.71
- Synergy Score (CAL-51 cell line): 14.86
- Best CI (CAL-85-1 cell line): 0.13
- Bliss Volume (CAL-85-1 cell line): 22.07
- HSA volume (CAL-85-1 cell line): 18.05
- Loewe Volume (CAL-85-1 cell line): 16.51
- Synergy Score (CAL-85-1 cell line): 28.31
- Best CI (CAL-120 cell line): 0.82
- Bliss Volume (CAL-120 cell line): 4.43
- HSA volume (CAL-120 cell line): 4.29
- Loewe Volume (CAL-120 cell line): 3.99
- Synergy Score (CAL-120 cell line): 11.20
- Best CI (CAL-148 cell line): 0.21
- Bliss Volume (CAL-148 cell line): 18.81
- HSA volume (CAL-148 cell line): 13.97
- Loewe Volume (CAL-148 cell line): 17.68
- Synergy Score (CAL-148 cell line): 29.60
- Best CI (CAMA-1 cell line): 0.40
- Bliss Volume (CAMA-1 cell line): 26.19
- HSA volume (CAMA-1 cell line): 5.28
- Loewe Volume (CAMA-1 cell line): 3.50
- Synergy Score (CAMA-1 cell line): 6.88
- Best CI (DU-4475 cell line): 0.43
- Bliss Volume (DU-4475 cell line): 10.55
- HSA volume (DU-4475 cell line): 1.06
- Loewe Volume (DU-4475 cell line): 0.39
- Synergy Score (DU-4475 cell line): 2.06
- Best CI (EVSA-T cell line): 0.51
- Bliss Volume (EVSA-T cell line): 2.50
- HSA volume (EVSA-T cell line): 1.44
- Loewe Volume (EVSA-T cell line): 1.31
- Synergy Score (EVSA-T cell line): 1.92
- Best CI (HCC38): 1.06
- Bliss Volume (HCC38): 17.98
- HSA volume (HCC38): 8.02
- Loewe Volume (HCC38): 11.04
- Synergy Score (HCC38): 11.55
- Best CI (HCC70): 0.09
- Bliss Volume (HCC70): 36.07
- HSA volume (HCC70): 21.70
- Loewe Volume (HCC70): 21.51
- Synergy Score (HCC70): 42.47
- Best CI (HCC1143): 0.47
- Bliss Volume (HCC1143): 14.84
- HSA volume (HCC1143): 7.69
- Loewe Volume (HCC1143): 8.83
- Synergy Score (HCC1143): 12.39
- Best CI (HCC1569): 0.76
- Bliss Volume (HCC1569): 17.69
- HSA volume (HCC1569): 11.68
- Loewe Volume (HCC1569): 14.89
- Synergy Score (HCC1569): 23.33
- Best CI (HCC1806): 0.15
- Bliss Volume (HCC1806): 25.34
- HSA volume (HCC1806): 19.39
- Loewe Volume (HCC1806): 21.61
- Synergy Score (HCC1806): 37.41
- Best CI (HCC1937): 0.84
- Bliss Volume (HCC1937): 13.93
- HSA volume (HCC1937): 5.77
- Loewe Volume (HCC1937): 10.37
- Synergy Score (HCC1937): 13.10
- Best CI (HCC1954): 0.06
- Bliss Volume (HCC1954): 37.73
- HSA volume (HCC1954): 19.30
- Loewe Volume (HCC1954): 19.31
- Synergy Score (HCC1954): 38.93
- Best CI (HCC2218): 0.05
- Bliss Volume (HCC2218): 30.06
- HSA volume (HCC2218): 10.84
- Loewe Volume (HCC2218): 8.50
- Synergy Score (HCC2218): 20.85
- Best CI (HDQ-P1): 0.57
- Bliss Volume (HDQ-P1): 10.17
- HSA volume (HDQ-P1): 9.28
- Loewe Volume (HDQ-P1): 9.93
- Synergy Score (HDQ-P1): 17.02
- Best CI (HMC-1-8): 0.24
- Bliss Volume (HMC-1-8): 19.74
- HSA volume (HMC-1-8): 14.99
- Loewe Volume (HMC-1-8): 15.17
- Synergy Score (HMC-1-8): 30.76
- Best CI (JIMT-1): 0.18
- Bliss Volume (JIMT-1): 10.52
- HSA volume (JIMT-1): 11.00
- Loewe Volume (JIMT-1): 11.11
- Synergy Score (JIMT-1): 17.62

Structure (SMILES): O=C(c1cc(Cc2n[nH]c(=O)c3ccccc23)ccc1F)N1CCN(C(=O)C2CC2)CC1 [Olaparib]
- Best CI (AU565 cell line): 0.75
- Bliss Volume (AU565 cell line): 2.11
- HSA volume (AU565 cell line): −1.92
- Loewe Volume (AU565 cell line): 0.98
- Synergy Score (AU565 cell line): 2.27
- Best CI (BT-20 cell line): 0.88
- Bliss Volume (BT-20 cell line): 0.80
- HSA volume (BT-20 cell line): 0.38
- Loewe Volume (BT-20 cell line): 0.63
- Synergy Score (BT-20 cell line): 4.78
- Best CI (CAL-51 cell line): 0.55
- Bliss Volume (CAL-51 cell line): 1.50
- HSA volume (CAL-51 cell line): 1.03
- Loewe Volume (CAL-51 cell line): 2.21
- Synergy Score (CAL-51 cell line): 1.89
- Best CI (CAL-85-1 cell line): 0.67
- Bliss Volume (CAL-85-1 cell line): 4.52
- HSA volume (CAL-85-1 cell line): 5.66
- Loewe Volume (CAL-85-1 cell line): 6.67
- Synergy Score (CAL-85-1 cell line): 5.10
- Best CI (CAL-120 cell line): 0.85
- Bliss Volume (CAL-120 cell line): 3.31
- HSA volume (CAL-120 cell line): −3.93
- Loewe Volume (CAL-120 cell line): −3.49
- Synergy Score (CAL-120 cell line): 0.11
- Best CI (CAL-148 cell line): 0.27
- Bliss Volume (CAL-148 cell line): 3.34
- HSA volume (CAL-148 cell line): 5.39
- Loewe Volume (CAL-148 cell line): 5.40
- Synergy Score (CAL-148 cell line): 9.33
- Best CI (CAMA-1 cell line): 1.12
- Bliss Volume (CAMA-1 cell line): 5.62
- HSA volume (CAMA-1 cell line): 2.59
- Loewe Volume (CAMA-1 cell line): 3.95
- Synergy Score (CAMA-1 cell line): 4.78
- Best CI (DU-4475 cell line): 1.00
- Bliss Volume (DU-4475 cell line): 7.40
- HSA volume (DU-4475 cell line): 5.68
- Loewe Volume (DU-4475 cell line): 5.80
- Synergy Score (DU-4475 cell line): 4.61
- Best CI (EVSA-T cell line): 1.17
- Bliss Volume (EVSA-T cell line): 6.05
- HSA volume (EVSA-T cell line): 3.16
- Loewe Volume (EVSA-T cell line): 3.21
- Synergy Score (EVSA-T cell line): 4.47
- Best CI (HCC38): 0.72
- Bliss Volume (HCC38): 6.78
- HSA volume (HCC38): 7.48
- Loewe Volume (HCC38): 7.01
- Synergy Score (HCC38): 8.69
- Best CI (HCC70): 0.94
- Bliss Volume (HCC70): 6.93
- HSA volume (HCC70): 6.07
- Loewe Volume (HCC70): 6.54
- Synergy Score (HCC70): 12.18
- Best CI (HCC1143): 0.24
- Bliss Volume (HCC1143): 4.87
- HSA volume (HCC1143): 3.84
- Loewe Volume (HCC1143): 3.62
- Synergy Score (HCC1143): 4.20
- Best CI (HCC1569): 0.84
- Bliss Volume (HCC1569): 7.47
- HSA volume (HCC1569): 5.26
- Loewe Volume (HCC1569): 8.00
- Synergy Score (HCC1569): 4.98
- Best CI (HCC1806): 0.21
- Bliss Volume (HCC1806): 7.25
- HSA volume (HCC1806): 8.26
- Loewe Volume (HCC1806): 8.49
- Synergy Score (HCC1806): 7.73
- Best CI (HCC1937): 0.63
- Bliss Volume (HCC1937): 2.27
- HSA volume (HCC1937): −1.83
- Loewe Volume (HCC1937): 3.06
- Synergy Score (HCC1937): 1.77
- Best CI (HCC1954): 0.92
- Bliss Volume (HCC1954): 1.68
- HSA volume (HCC1954): 0.48
- Loewe Volume (HCC1954): 1.64
- Synergy Score (HCC1954): 4.49
- Best CI (HCC2218): 0.88
- Bliss Volume (HCC2218): −1.34
- HSA volume (HCC2218): −1.12
- Loewe Volume (HCC2218): −1.71
- Synergy Score (HCC2218): 2.66
- Best CI (HDQ-P1): 0.51
- Bliss Volume (HDQ-P1): 3.81
- HSA volume (HDQ-P1): −0.38
- Loewe Volume (HDQ-P1): 3.65
- Synergy Score (HDQ-P1): 1.22
- Best CI (HMC-1-8): 0.78
- Bliss Volume (HMC-1-8): 10.54
- HSA volume (HMC-1-8): 5.78
- Loewe Volume (HMC-1-8): 6.22
- Synergy Score (HMC-1-8): 10.86
- Best CI (JIMT-1): 0.59
- Bliss Volume (JIMT-1): −1.42
- HSA volume (JIMT-1): −0.34
- Loewe Volume (JIMT-1): −1.35
- Synergy Score (JIMT-1): 0.61
- HSA volume (KPL-1): 1.49
